Test results: US12559529B2, “NPY2 receptor agonists” (Boehringer Ingelheim International GmbH, priority 2019, dated 2026)
*1 amine or outer side, *2 acyl side, *3 side chain or, on linkers, in order; H or OH if unused. Where a SMILES comes first, the peptide text is derived from it. Side-chain parts run from the residue outwards. The star is where a group is joined. C18 diacid = O=C(O)CCCCCCCCCCCCCCCCC(=O)*; γGlu = O=C(O)[C@H](CCC(=O)[*:2])N[*:1]; Isovaleryl = CC(C)CC(=O)*; AEEA = NCCOCCOCC(=O)O

Experiments:
[1] = target: T1, Human Neuropeptide Y2 Receptor (Homo sapiens, UniProt P49146); assay: Radioligand binding competition assay (RLB); conditions: Table 3; human 125I-PYY (1-36) 0.02 nM, Y2 receptor membranes; read-out: Ki
T1 construct: purchased CHEMICON HTS066M
T1 sequence (P49146 1-381): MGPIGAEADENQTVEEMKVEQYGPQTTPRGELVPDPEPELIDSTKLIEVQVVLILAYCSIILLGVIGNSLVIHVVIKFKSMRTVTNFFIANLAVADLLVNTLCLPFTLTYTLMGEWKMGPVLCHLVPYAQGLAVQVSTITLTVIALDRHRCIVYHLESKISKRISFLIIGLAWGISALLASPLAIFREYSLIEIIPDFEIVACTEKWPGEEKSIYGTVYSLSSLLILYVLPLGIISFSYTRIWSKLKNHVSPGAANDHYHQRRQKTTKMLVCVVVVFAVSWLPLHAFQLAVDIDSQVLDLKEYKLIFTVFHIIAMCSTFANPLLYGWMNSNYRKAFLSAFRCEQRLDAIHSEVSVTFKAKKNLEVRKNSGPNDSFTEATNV
Procedure, shortened: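 Competition binding on human Y2 receptor membranes, 0.5 μg protein/well, in 50 mM HEPES, 5 mM MgCl2, 1 mM CaCl2, pH 7.4, 0.2% ovalbumin; peptides diluted from 1 mM DMSO stocks.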

normal NMRI mice = assay: Effect on acute food intake in normal NMRI mice; format: in vivo; conditions: male NMRI mice, 10 nmol/kg subcutaneously once
Procedure: Male NMRI mice were obtained from Charles River (Charles River, Research Models & Services Germany GmbH) or from Jan Vier (Jan Vier Labs, France) at 5 weeks of age. […] Room temperature was controlled to 21° C.±1° C., with 60%+20% humidity.
Animals were transferred 5-7 days before the start of the study to a real-time food intake monitoring system, HM-2 system (MBRose, Denmark), to allow acclimatization to experimental conditions. As the animals were uniquely identified with microchips, each individual animal was identified by its microchip upon entry and exit from the food channel. Randomization of the mice for each study group (n=7-8) was based on body weight measured the day before the start of the study. A vehicle-treated (50 mM phosphate buffer pH7 with 5% Mannitol) group was included in each experiment. Six hours before the start of the night phase animals were fasted. One hour before the dark phase animals were dosed once subcutaneously (10 nmol/kg) with test peptide. […] The food intake of the treated groups was normalized (in %) to the average food intake of the group receiving vehicle (Table 7). Statistical significance was evaluated using One-way analysis of variance with Turkey's multiple comparison test. P<0.05 was considered statistically significant.

Ki [1] [nM] | SMILES | Acute Food Intake 24 h [% vehicle] (normal NMRI mice)
3.14 | CC(C)CC(=O)N[C@@H](C)C(=O)N1CCC[C@H]1C(=O)N[C@@H](CCC(=O)O)C(=O)N[C@@H](CCCCNC(=O)COCCOCCNC(=O)COCCOCCNC(=O)CC[C@H](NC(=O)CCCCCCCCCCCCCCCCC(=O)O)C(=O)O)C(=O)N1CCC[C@H]1C(=O)N[C@@H](CCC(=O)O)C(=O)N[C@@H](CCC(=O)O)C(=O)N[C@@H](CCC(=O)O)C(=O)N[C@@H](C)C(=O)N[C@@H](CO)C(=O)N1CCC[C@H]1C(=O)N[C@@H](C)C(=O)N[C@@H](CCC(=O)O)C(=O)N[C@@H](CC(C)C)C(=O)N[C@@H](CCC(N)=O)C(=O)N[C@@H](CCCNC(=N)N)C(=O)N[C@@H](Cc1ccc(O)cc1)C(=O)N[C@@H](Cc1ccc(O)cc1)C(=O)N[C@H](C(=O)N[C@@H](CO)C(=O)N[C@@H](CC(C)C)C(=O)N[C@@H](CCCNC(=N)N)C(=O)N[C@@H](Cc1c[nH]cn1)C(=O)N[C@@H](Cc1ccc(O)cc1)C(=O)N[C@@H](Cc1ccc(O)cc1)C(=O)N[C@@H](CC(N)=O)C(=O)N[C@@H](Cc1c[nH]c2ccccc12)C(=O)N[C@@H](CC(C)C)C(=O)N[C@H](C(=O)N[C@@H](CCCNC(=N)N)C(=O)N[C@@H](CCC(N)=O)C(=O)N[C@@H](CCCNC(=N)N)C(=O)N[C@@H](Cc1ccc(O)cc1)C(N)=O)[C@@H](C)O)C(C)C [Compound 3, N{alpha-4}-(3-methylbutanoyl)-N{epsilon-7}-[2-(2-{2-[2-(2-{2-[(4S)-4-carboxy-4-(17-carboxyheptadecanamido)butanamido]ethoxy}ethoxy)acetamido]ethoxy}ethoxy)acetamido]-[4A,7K,9E,11E,15A,18Q,22V,28Y,30W,31L]hPYY (4-36)] (Isovaleryl-APEK([AEEA-AEEA-γGlu-C18 diacid])PEEEASPAELQRYYVSLRHYYNWLTRQRY-NH2) | 62
1.02 | CC(C)CC(=O)N[C@@H](C)C(=O)N1CCC[C@H]1C(=O)N[C@@H](CCC(=O)O)C(=O)N[C@@H](CCCCNC(=O)COCCOCCNC(=O)COCCOCCNC(=O)CC[C@H](NC(=O)CCCCCCCCCCCCCCCCC(=O)O)C(=O)O)C(=O)N1CCC[C@H]1C(=O)N[C@@H](CCC(=O)O)C(=O)N[C@@H](CCC(=O)O)C(=O)N[C@@H](CC(=O)O)C(=O)N[C@@H](C)C(=O)N[C@@H](CO)C(=O)N1CCC[C@H]1C(=O)N[C@@H](CCC(=O)O)C(=O)N[C@@H](CCC(=O)O)C(=O)N[C@@H](CC(C)C)C(=O)N[C@@H](CCC(N)=O)C(=O)N[C@@H](C)C(=O)N[C@@H](Cc1ccc(O)cc1)C(=O)N[C@@H](Cc1ccc(O)cc1)C(=O)N[C@H](C(=O)N[C@@H](CO)C(=O)N[C@@H](CC(C)C)C(=O)N[C@@H](CCCNC(=N)N)C(=O)N[C@@H](Cc1c[nH]cn1)C(=O)N[C@@H](Cc1ccc(O)cc1)C(=O)N[C@@H](Cc1ccc(O)cc1)C(=O)N[C@@H](CC(N)=O)C(=O)N[C@@H](Cc1c[nH]c2ccccc12)C(=O)N[C@@H](CC(C)C)C(=O)N[C@H](C(=O)N[C@@H](CCCNC(=N)N)C(=O)N[C@@H](CCC(N)=O)C(=O)N[C@@H](CCCNC(=N)N)C(=O)N[C@@H](Cc1ccc(O)cc1)C(N)=O)[C@@H](C)O)C(C)C [Compound 7, N{alpha-4}-(3-methylbutanoyl)-N{epsilon-7}-[2-(2-{2-[2-(2-{2-[(4S)-4-carboxy-4-(17-carboxyheptadecanamido)butanamido]ethoxy}ethoxy)acetamido]ethoxy}ethoxy)acetamido]-[4A,7K,9E,18Q,19A,22V,28Y,30W,31L]hPYY (4-36)] | 47
– | CC(C)CC(=O)N[C@@H](C)C(=O)N1CCC[C@H]1C(=O)N[C@@H](CCC(=O)O)C(=O)N[C@@H](CCCCNC(=O)COCCOCCNC(=O)COCCOCCNC(=O)CC[C@H](NC(=O)CCCCCCCCCCCCCCCCC(=O)O)C(=O)O)C(=O)N1CCC[C@H]1C(=O)N[C@@H](CCC(=O)O)C(=O)N[C@@H](CCC(=O)O)C(=O)N[C@@H](CCC(=O)O)C(=O)N[C@@H](C)C(=O)N[C@@H](CO)C(=O)N1CCC[C@H]1C(=O)N[C@@H](CCC(=O)O)C(=O)N[C@@H](CCC(=O)O)C(=O)N[C@@H](CC(C)C)C(=O)N[C@@H](CCC(N)=O)C(=O)N[C@@H](CCCNC(=N)N)C(=O)N[C@@H](Cc1ccc(O)cc1)C(=O)N[C@@H](CCC(=O)O)C(=O)N[C@H](C(=O)N[C@@H](CO)C(=O)N[C@@H](CC(C)C)C(=O)N[C@@H](CCCNC(=N)N)C(=O)N[C@@H](Cc1c[nH]cn1)C(=O)N[C@@H](Cc1ccc(O)cc1)C(=O)N[C@@H](Cc1ccc(O)cc1)C(=O)N[C@@H](CC(N)=O)C(=O)N[C@@H](Cc1c[nH]c2ccccc12)C(=O)N[C@@H](CC(C)C)C(=O)N[C@H](C(=O)N[C@@H](CCCNC(=N)N)C(=O)N[C@@H](CCC(N)=O)C(=O)N[C@@H](CCCNC(=N)N)C(=O)N[C@@H](Cc1ccc(O)cc1)C(N)=O)[C@@H](C)O)C(C)C [Compound 154, N{alpha-4}-(3-methylbutanoyl)-N{epsilon-7}-[2-(2-{2-[2-(2-{2-[(4S)-4-carboxy-4-(17-carboxyheptadecanamido)butanamido]ethoxy}ethoxy)acetamido]ethoxy}ethoxy)acetamido]-[4A,7K,9E,11E,18Q,21E,22V,28Y,30W,31L]hPYY (4-36)] (Isovaleryl-APEK([AEEA-AEEA-γGlu-C18 diacid])PEEEASPEELQRYEVSLRHYYNWLTRQRY-NH2) | 73
– | CC(C)CC(=O)N[C@@H](C)C(=O)N1CCC[C@H]1C(=O)N[C@@H](CCC(=O)O)C(=O)N[C@@H](CCCCNC(=O)COCCOCCNC(=O)COCCOCCNC(=O)CC[C@H](NC(=O)CCCCCCCCCCCCCCCCC(=O)O)C(=O)O)C(=O)N1CCC[C@H]1C(=O)N[C@@H](CCC(=O)O)C(=O)N[C@@H](C)C(=O)N[C@@H](CC(=O)O)C(=O)N[C@@H](C)C(=O)N[C@@H](CO)C(=O)N1CCC[C@H]1C(=O)N[C@@H](CCC(=O)O)C(=O)N[C@@H](CCC(=O)O)C(=O)N[C@@H](CC(C)C)C(=O)N[C@@H](CCC(=O)O)C(=O)N[C@@H](CCC(N)=O)C(=O)N[C@@H](Cc1ccc(O)cc1)C(=O)N[C@@H](Cc1ccc(O)cc1)C(=O)N[C@H](C(=O)N[C@@H](CO)C(=O)N[C@@H](CC(C)C)C(=O)N[C@@H](CCCNC(=N)N)C(=O)N[C@@H](Cc1c[nH]cn1)C(=O)N[C@@H](Cc1ccc(O)cc1)C(=O)N[C@@H](Cc1ccc(O)cc1)C(=O)N[C@@H](CC(N)=O)C(=O)N[C@@H](Cc1c[nH]c2ccccc12)C(=O)N[C@@H](CC(C)C)C(=O)N[C@H](C(=O)N[C@@H](CCCNC(=N)N)C(=O)N[C@@H](CCC(N)=O)C(=O)N[C@@H](CCCNC(=N)N)C(=O)N[C@@H](Cc1ccc(O)cc1)C(N)=O)[C@@H](C)O)C(C)C [Compound 159, N{alpha-4}-(3-methylbutanoyl)-N{epsilon-7}-[2-(2-{2-[2-(2-{2-[(4S)-4-carboxy-4-(17-carboxyheptadecanamido)butanamido]ethoxy}ethoxy)acetamido]ethoxy}ethoxy)acetamido]-[4A,7K,9E,10A,18E,19Q,22V,28Y,30W,31L]hPYY (4-36)] | 53
– | CC(C)CC(=O)N[C@@H](C)C(=O)N1CCC[C@H]1C(=O)N[C@@H](CCC(=O)O)C(=O)N[C@@H](CCCCNC(=O)COCCOCCNC(=O)COCCOCCNC(=O)CC[C@H](NC(=O)CCCCCCCCCCCCCCCCC(=O)O)C(=O)O)C(=O)N1CCC[C@H]1C(=O)N[C@@H](CCC(=O)O)C(=O)N[C@@H](CCC(=O)O)C(=O)N[C@@H](CC(=O)O)C(=O)N[C@@H](C)C(=O)N[C@@H](CO)C(=O)N1CCC[C@H]1C(=O)N[C@@H](CCC(=O)O)C(=O)N[C@@H](CCC(=O)O)C(=O)N[C@@H](CC(C)C)C(=O)N[C@@H](CCC(N)=O)C(=O)N[C@@H](CCC(N)=O)C(=O)N[C@@H](Cc1ccc(O)cc1)C(=O)N[C@@H](CCC(=O)O)C(=O)N[C@H](C(=O)N[C@@H](CO)C(=O)N[C@@H](CC(C)C)C(=O)N[C@@H](CCCNC(=N)N)C(=O)N[C@@H](Cc1c[nH]cn1)C(=O)N[C@@H](Cc1ccc(O)cc1)C(=O)N[C@@H](Cc1ccc(O)cc1)C(=O)N[C@@H](CC(N)=O)C(=O)N[C@@H](Cc1c[nH]c2ccccc12)C(=O)N[C@@H](CC(C)C)C(=O)N[C@H](C(=O)N[C@@H](CCCNC(=N)N)C(=O)N[C@@H](CCC(N)=O)C(=O)N[C@@H](CCCNC(=N)N)C(=O)N[C@@H](Cc1ccc(O)cc1)C(N)=O)[C@@H](C)O)C(C)C [Compound 167, N{alpha-4}-(3-methylbutanoyl)-N{epsilon-7}-[2-(2-{2-[2-(2-{2-[(4S)-4-carboxy-4-(17-carboxyheptadecanamido)butanamido]ethoxy}ethoxy)acetamido]ethoxy}ethoxy)acetamido]-[4A,7K,9E,18Q,19Q,21E,22V,28Y,30W,31L]hPYY (4-36)] (Isovaleryl-APEK([AEEA-AEEA-γGlu-C18 diacid])PEEDASPEELQQYEVSLRHYYNWLTRQRY-NH2) | 73
